#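 Exposure lasted 48 hours, with cells grown in 96-well plates and compounds tested at five concentrations. Here, GI50 denotes the concentration required for 50% inhibition of growth. At the TGI there is no net growth.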
# Columns and labels:
# Experiment in all cases: NCI tumour cell line growth inhibition, 48 h
# [1] = tested on: HCC-2998 colon
# [2] = tested on: DU-145 prostate
# [3] = tested on: SW-620 colon
# [4] = tested on: OVCAR-5 ovarian
# [5] = tested on: UACC-257 melanoma
# [6] = tested on: OVCAR-8 ovarian
# [7] = tested on: SK-MEL-2 melanoma
# [8] = tested on: SF-268 CNS
# [9] = tested on: SF-295 CNS
# [10] = tested on: M14 melanoma
# [11] = tested on: OVCAR-3 ovarian
# [12] = tested on: PC-3 prostate
# [13] = tested on: RPMI-8226 leukemia
# [14] = tested on: SN12C renal
# [15] = tested on: TK-10 renal
# [16] = tested on: ACHN renal
# [17] = tested on: COLO 205 colon
# [18] = tested on: HS 578T breast
# [19] = tested on: EKVX NSCLC
# [20] = tested on: HCT-116 colon
# [21] = tested on: MALME-3M melanoma
# [22] = tested on: MCF7 breast
# [23] = tested on: RXF 393 renal
# [24] = tested on: IGROV1 ovarian
# [25] = tested on: U251 CNS
# [26] = tested on: BT-549 breast
# [27] = tested on: T-47D breast
# [28] = tested on: CCRF-CEM leukemia
# [29] = tested on: NCI-H23 lung
# [30] = tested on: HT29 colon
# [31] = tested on: OVCAR-4 ovarian
# [32] = tested on: NCI-H522 lung
# [33] = tested on: SK-MEL-28 melanoma
# [34] = tested on: HOP-92 NSCLC
# [35] = tested on: MDA-MB-231 breast
# [36] = tested on: A549 NSCLC
# [37] = tested on: SNB-75 CNS
# [38] = tested on: A498 renal
# [39] = tested on: HOP-62 NSCLC
# [40] = tested on: KM12 colon
# [41] = tested on: UO-31 renal
# [42] = tested on: K-562 leukemia
# [43] = tested on: SNB-19 CNS
# [44] = tested on: SK-MEL-5 melanoma
# [45] = tested on: SF-539 CNS
# [46] = tested on: HL-60(TB) leukemia
# [47] = tested on: LOX IMVI melanoma
# [48] = tested on: UACC-62 melanoma
# [49] = tested on: CAKI-1 renal
# [50] = tested on: NCI/ADR-RES ovarian
# [51] = tested on: MDA-MB-435
# [52] = tested on: 786-0 renal
# [53] = tested on: NCI-H460 lung
# [54] = tested on: MOLT-4 leukemia
# [55] = tested on: HCT-15 colon
# [56] = tested on: NCI-H226 lung
structure (smiles),measurement,setting,value
Cn1cc(S(=O)(=O)N2CCC3=Cc4c(cnn4-c4ccc(F)cc4)C[C@]3(C(=O)c3cc(C(F)(F)F)ccn3)C2)cn1,GI50,[1],> 100 µM
same,TGI,[1],> 100 µM
same,GI50,[2],> 100 µM
same,TGI,[2],> 100 µM
same,GI50,[3],> 100 µM
same,TGI,[3],> 100 µM
same,GI50,[4],> 100 µM
same,TGI,[4],> 100 µM
same,GI50,[5],> 100 µM
same,TGI,[5],> 100 µM
same,GI50,[6],> 100 µM
same,TGI,[6],> 100 µM
same,GI50,[7],88.2 µM
same,TGI,[7],> 100 µM
same,GI50,[8],> 100 µM
same,TGI,[8],> 100 µM
same,GI50,[9],> 100 µM
same,TGI,[9],> 100 µM
same,GI50,[10],> 100 µM
same,TGI,[10],> 100 µM
same,GI50,[11],> 100 µM
same,TGI,[11],> 100 µM
same,GI50,[12],31.4 µM
same,TGI,[12],> 100 µM
same,GI50,[13],93.7 µM
same,TGI,[13],> 100 µM
same,GI50,[14],> 100 µM
same,TGI,[14],> 100 µM
same,GI50,[15],> 100 µM
same,TGI,[15],> 100 µM
same,GI50,[16],> 100 µM
same,TGI,[16],> 100 µM
same,GI50,[17],> 100 µM
same,TGI,[17],> 100 µM
same,GI50,[18],37.8 µM
same,TGI,[18],> 100 µM
same,GI50,[19],7.98 µM
same,TGI,[19],> 100 µM
same,GI50,[20],11.1 µM
same,TGI,[20],> 100 µM
same,GI50,[21],> 100 µM
same,TGI,[21],> 100 µM
same,GI50,[22],6.34 µM
same,TGI,[22],> 100 µM
same,GI50,[23],5.19 µM
same,TGI,[23],> 100 µM
same,GI50,[24],23.3 µM
same,TGI,[24],> 100 µM
same,GI50,[25],> 100 µM
same,TGI,[25],> 100 µM
same,GI50,[26],26.6 µM
same,TGI,[26],> 100 µM
same,GI50,[27],13.3 µM
same,TGI,[27],> 100 µM
same,GI50,[28],> 100 µM
same,TGI,[28],> 100 µM
same,GI50,[29],> 100 µM
same,TGI,[29],> 100 µM
same,GI50,[30],89.7 µM
same,TGI,[30],> 100 µM
same,GI50,[31],> 100 µM
same,TGI,[31],> 100 µM
same,GI50,[32],> 100 µM
same,TGI,[32],> 100 µM
same,GI50,[33],> 100 µM
same,TGI,[33],> 100 µM
same,GI50,[34],6.57 µM
same,TGI,[34],> 100 µM
same,GI50,[35],> 100 µM
same,TGI,[35],> 100 µM
same,GI50,[36],39.7 µM
same,TGI,[36],> 100 µM
same,GI50,[37],> 100 µM
same,TGI,[37],> 100 µM
same,GI50,[38],4.64 µM
same,TGI,[38],> 100 µM
same,GI50,[39],43 µM
same,TGI,[39],> 100 µM
same,GI50,[40],75.8 µM
same,TGI,[40],> 100 µM
same,GI50,[41],9.52 µM
same,TGI,[41],> 100 µM
same,GI50,[42],> 100 µM
same,TGI,[42],> 100 µM
same,GI50,[43],> 100 µM
same,TGI,[43],> 100 µM
same,GI50,[44],57.7 µM
same,TGI,[44],> 100 µM
same,GI50,[45],95.8 µM
same,TGI,[45],> 100 µM
same,GI50,[46],> 100 µM
same,TGI,[46],> 100 µM
same,GI50,[47],> 100 µM
same,TGI,[47],> 100 µM
same,GI50,[48],29.1 µM
same,TGI,[48],> 100 µM
same,GI50,[49],60.1 µM
same,TGI,[49],> 100 µM
same,GI50,[50],> 100 µM
same,TGI,[50],> 100 µM
same,GI50,[51],> 100 µM
same,TGI,[51],> 100 µM
same,GI50,[52],> 100 µM
same,TGI,[52],> 100 µM
same,GI50,[53],> 100 µM
same,TGI,[53],> 100 µM
same,GI50,[54],> 100 µM
same,TGI,[54],> 100 µM
same,GI50,[55],> 100 µM
same,TGI,[55],> 100 µM
same,GI50,[56],81.1 µM
same,TGI,[56],> 100 µM
